Data reported in ChEMBL document CHEMBL3817834, “Scaffold morphing leading to evolution of 2,4-diaminoquinolines and aminopyrazolopyrimidines as inhibitors of the ATP synthesis pathway” (Medchemcomm, 2016).
In brackets after ≈: the same amount, converted by molar mass. Activity calls are given as the source filed them. The rule behind the calls is not given here.

Columns and labels:
[1] = Inhibition of ATP synthase in Mycobacterium smegmatis inverted membrane vesicles assessed as reduction in oxidative phosphorylation of ADP incubated for 60 mins in presence of NADH by luciferin/luciferase coupled […] assay; set-up: species or system Mycolicibacterium smegmatis
[2] = tested on: Mycobacterium tuberculosis; test: Antimycobacterial activity against Mycobacterium tuberculosis under aerobic condition after 7 days by microdilution method; type: functional; conditions: 168 h
[3] = Selectivity index, ratio of IC50 for bovine heart mitochondrial ATP synthase to IC50 for ATP synthase in Mycobacterium smegmatis inverted membrane vesicles
[4] = tested on: Mycobacterium tuberculosis; test: Bactericidal activity against Mycobacterium tuberculosis under hypoxic condition after 7 days by microdilution method; type: functional; conditions: 168 h
[5] = tested on: Mycobacterium tuberculosis; test: Ratio of MBC for Mycobacterium tuberculosis under hypoxic condition to MIC for Mycobacterium tuberculosis under aerobic condition; type: functional
[6] = tested on: Mycobacterium tuberculosis; test: Bactericidal activity against Mycobacterium tuberculosis under aerobic condition after 7 days by microdilution method; type: functional; conditions: 168 h
[7] = tested on: Mycobacterium tuberculosis; test: Antimycobacterial activity against drug sensitive Mycobacterium tuberculosis ATCC 27294 by turbidometric method; type: functional
[8] = tested on: Mycobacterium tuberculosis; test: Antimycobacterial activity against drug sensitive Mycobacterium tuberculosis isolate 25618 by turbidometric method; type: functional
[9] = tested on: Mycobacterium tuberculosis; test: Antimycobacterial activity against drug sensitive Mycobacterium tuberculosis Erdman by turbidometric method; type: functional; conditions: Erdman = ATCC 35801
[10] = tested on: Mycobacterium tuberculosis; test: Antimycobacterial activity against drug sensitive Mycobacterium tuberculosis Beijing (E-47/94) by turbidometric method; type: functional
[11] = tested on: Mycobacterium tuberculosis; test: Antimycobacterial activity against drug sensitive Mycobacterium tuberculosis Harlingen by turbidometric method; type: functional
[12] = Ratio of IC50 for ATP synthase in Mycobacterium smegmatis inverted membrane vesicles to IC50 for Mycobacterium bovis BCG
[13] = tested on: Mycobacterium tuberculosis; test: Antimycobacterial activity against Mycobacterium tuberculosis H37Rv infected in Balb/c mouse assessed as log reduction in CFU in lungs at 10 mg/kg, po qd dosed 6 days per week for 2 weeks; type: functional
[14] = Inhibition of bovine heart mitochondrial ATP synthase assessed as reduction in oxidative phosphorylation of ADP in presence of NADH by ATP bioluminescence assay; set-up: species or system Bos taurus
[15] = tested on: Mycobacterium tuberculosis; test: Antimycobacterial activity against Mycobacterium tuberculosis H37Rv infected in Balb/c mouse assessed as reduction in CFU in lungs at 100 to 200 mg/kg, po qd dosed 6 days per week for 2 weeks; type: functional, organism-based
[16] = tested on: Mycobacterium tuberculosis; test: Bactericidal activity against Mycobacterium tuberculosis under replicating condition assessed as reduction in colony forming units at 3.125 to 200 uM by time kill kinetic study; type: functional, organism-based; conditions: TDE = time-dependent effect
[17] = tested on: Mus musculus; test: T>MIC in Mycobacterium tuberculosis H37Rv infected Balb/c mouse at 100 to 200 mg/kg, po qd dosed 6 days per week for 2 weeks by LC-MS analysis

| Structure (SMILES) | IC50 [1] [nM] | MIC [2] [µM] | Ratio IC50 [3] | MBC [4] [µM] | MBC [6] [µM] | MIC80 [7] [µM] | MIC80 [8] [µM] | MIC80 [9] [µM] | MIC80 [10] [µM] | MIC80 [11] [µM] | further results |
| --- | --- | --- | --- | --- | --- | --- | --- | --- | --- | --- | --- |
| COc1cc2nc(N3CCC(c4ccccc4Cl)C3)cc(Nc3cnc(OCC4CCCN4C)c(F)c3)c2cc1OC (stereo not given) | 60 | 6.2 (≈ 3.67 µg/mL) | 44 | 50 (≈ 29.6 µg/mL) | 50 (≈ 29.6 µg/mL) | – | – | – | – | – | Ratio [5]: 15 |
| CO[C@H]1/C=C/O[C@@]2(C)Oc3c(C)c(O)c4c(O)c(c(/C=N/N5CCN(C)CC5)c(O)c4c3C2=O)NC(=O)/C(C)=C\C=C\[C@H](C)[C@H](O)[C@@H](C)[C@@H](O)[C@@H](C)[C@H](OC(C)=O)[C@@H]1C [RIFAMPIN] | – | – | – | – | – | 0.04 (≈ 0.0329 µg/mL) | 0.04 (≈ 0.0329 µg/mL) | 0.04 (≈ 0.0329 µg/mL) | 0.04 (≈ 0.0329 µg/mL) | 0.04 (≈ 0.0329 µg/mL) | – |
| CC1COc2c(N3CCN(C)CC3)c(F)cc3c(=O)c(C(=O)O)cn1c23 (stereo not given) [OFLOXACIN] | – | – | – | – | – | 0.7 (≈ 0.253 µg/mL) | 0.7 (≈ 0.253 µg/mL) | 0.7 (≈ 0.253 µg/mL) | 0.7 (≈ 0.253 µg/mL) | 0.7 (≈ 0.253 µg/mL) | – |
| CN[C@@H]1[C@H](O[C@H]2[C@H](O[C@H]3[C@H](O)[C@@H](O)[C@H](N=C(N)N)[C@@H](O)[C@@H]3N=C(N)N)O[C@@H](C)[C@]2(O)C=O)O[C@@H](CO)[C@H](O)[C@H]1O [STREPTOMYCIN] | – | – | – | – | – | 0.3 (≈ 0.174 µg/mL) | 0.3 (≈ 0.174 µg/mL) | 0.3 (≈ 0.174 µg/mL) | 0.3 (≈ 0.174 µg/mL) | 0.3 (≈ 0.174 µg/mL) | – |
| COc1cc2nc(N3CCC(c4ccccc4Cl)C3)cc(Nc3cnc(NCCN(C)C)c(F)c3)c2cc1OC (stereo not given) | 100 | 1.6 (≈ 0.904 µg/mL) | 51 | – | – | – | – | – | – | – | – |
| COc1cc2nc(N3CCC(c4ccccc4Cl)C3)cc(Nc3cnc(OCCN(C)C)c(F)c3)c2cc1OC (stereo not given) | 40 | 1.6 (≈ 0.906 µg/mL) | 128 | 200 (≈ 113 µg/mL) | 54 (≈ 30.6 µg/mL) | 6.3 (≈ 3.57 µg/mL) | 3.1 (≈ 1.75 µg/mL) | 3.1 (≈ 1.75 µg/mL) | 3.1 (≈ 1.75 µg/mL) | 3.1 (≈ 1.75 µg/mL) | Ratio IC50 [12]: 100 |
| CCOc1ncc(Nc2nc(OCCC3CCOCC3)nc3cc(OC)c(OC)cc23)cc1F | 25000 | > 200 | – | – | – | – | – | – | – | – | – |
| CCOc1ncc(Nc2nc(NCCC3CCOCC3)nc3cc(OC)c(OC)cc23)cc1F | 600 | 1.9 (≈ 0.896 µg/mL) | 2.3 | 3 (≈ 1.41 µg/mL) | 19 (≈ 8.96 µg/mL) | – | – | – | – | – | Ratio [5]: 15 |
| COc1cc2nc(NCCC3CCOCC3)nc(Nc3cc(C(C)(C)C)n(C)n3)c2cc1OC | 100 | 6.2 (≈ 2.91 µg/mL) | 52 | 50 (≈ 23.4 µg/mL) | 25 (≈ 11.7 µg/mL) | – | – | – | – | – | Ratio IC50 [12]: 100; Ratio [5]: 15 |
| NNC(=O)c1ccncc1 [ISONIAZID] | – | – | – | – | – | 0.2 (≈ 0.0274 µg/mL) | 0.2 (≈ 0.0274 µg/mL) | 0.2 (≈ 0.0274 µg/mL) | 0.2 (≈ 0.0274 µg/mL) | 0.2 (≈ 0.0274 µg/mL) | Activity [13]: >2 deltalog10CFU |
| COc1cc2nc(NCCC3CCOCC3)nc(Nc3cnc(OCCN(C)C)c(F)c3)c2cc1OC | 900 | 25 (≈ 12.9 µg/mL) | > 28 | – | – | – | – | – | – | – | IC50 [14]: > 25000 nM |
| CN(C)CCOc1ncc(Nc2cc(N3CCC(c4ccccc4Cl)C3)nc3cc(F)c(F)cc23)cc1F (stereo not given) | 100 | 3.1 (≈ 1.68 µg/mL) | 19 | 50 (≈ 27.1 µg/mL) | 38 (≈ 20.6 µg/mL) | 3.1 (≈ 1.68 µg/mL) | 3.1 (≈ 1.68 µg/mL) | 3.1 (≈ 1.68 µg/mL) | 3.1 (≈ 1.68 µg/mL) | 3.1 (≈ 1.68 µg/mL) | Ratio IC50 [12]: 100; Ratio [5]: 15; Activity [15]: Active |
| CCOc1ncc(Nc2cc(NCCC3CCOCC3)nc3cc(OC)c(OC)cc23)cc1F | 800 | 6.2 (≈ 2.92 µg/mL) | 3.2 | – | – | – | – | – | – | – | Ratio IC50 [12]: 100 |
| CN(C)CCOc1ncc(Nc2cc(-c3ccccc3)nc3cc(-c4ccc(F)cc4)[nH]c23)cc1F | 100 | 0.8 (≈ 0.388 µg/mL) | 13 | – | – | 3.1 (≈ 1.51 µg/mL) | 3.1 (≈ 1.51 µg/mL) | 3.1 (≈ 1.51 µg/mL) | 3.1 (≈ 1.51 µg/mL) | 3.1 (≈ 1.51 µg/mL) | Ratio IC50 [12]: 100 |
| Cn1nc(Nc2nc(NCCC3CCOCC3)nc3ccccc23)cc1C(C)(C)C | 1700 | 6.2 (≈ 2.53 µg/mL) | 4.5 | – | – | – | – | – | – | – | – |
| COc1cc2nc(NCCC3CCOCC3)nc(Nc3cnc(OC)c(C)c3)c2cc1OC | 400 | 3.1 (≈ 1.41 µg/mL) | 10 | 13 (≈ 5.9 µg/mL) | 25 (≈ 11.3 µg/mL) | – | – | – | – | – | Ratio [5]: 15 |
| COc1cc2nc(NCCC3CCOCC3)cc(Nc3cnc(OCCN(C)C)c(F)c3)c2cc1OC | 3700 | 200 (≈ 103 µg/mL) | 1 | – | – | – | – | – | – | – | – |
| COc1cc2nc(NCCc3ccccc3Cl)cc(Nc3cnc(OCCN(C)C)c(F)c3)c2cc1OC | 60 | 3.1 (≈ 1.67 µg/mL) | 79 | – | – | – | – | – | – | – | – |
| COc1nc2ccc(Br)cc2cc1[C@@H](c1ccccc1)[C@@](O)(CCN(C)C)c1cccc2ccccc12 [BEDAQUILINE] | 5 | 0.2 (≈ 0.111 µg/mL) | – | 4 (≈ 2.22 µg/mL) | 1.6 (≈ 0.889 µg/mL) | 0.2 (≈ 0.111 µg/mL) | < 2 | < 2 | < 2 | < 2 | Ratio IC50 [12]: 100; Ratio [5]: 15 |
| CC(Nc1nc(N2CCCC2)nc2ccccc12)c1ccccc1 (stereo not given) | 2500 | 50 (≈ 15.9 µg/mL) | < 0.04 | – | – | – | – | – | – | – | – |
| CC(Nc1nc(N2CCCCC2)nc2ccccc12)c1ccccc1 (stereo not given) | 2100 | 25 (≈ 8.31 µg/mL) | 2.6 | – | – | – | – | – | – | – | IC50 [14]: 2600 nM |
| CN(C)CCOc1ncc(Nc2cc(-c3ccccc3)nc3cc(-c4ccc(F)cc4)nn23)cc1F | 450 | 6.2 (≈ 3.02 µg/mL) | 20 | 100 (≈ 48.7 µg/mL) | 28 (≈ 13.6 µg/mL) | 6.3 (≈ 3.07 µg/mL) | 6.3 (≈ 3.07 µg/mL) | 6.3 (≈ 3.07 µg/mL) | 6.3 (≈ 3.07 µg/mL) | 6.3 (≈ 3.07 µg/mL) | Ratio IC50 [12]: 100; Activity [16]: tde; Ratio [5]: 15; Activity [15]: Active; T>MIC [17]: 24 h |
| COc1cc2nc(NCCC3CCOCC3)nc(Nc3ncc(C(C)C)s3)c2cc1OC | 100 | 6.2 (≈ 2.84 µg/mL) | – | 50 (≈ 22.9 µg/mL) | 25 (≈ 11.4 µg/mL) | – | – | – | – | – | Ratio [5]: 15 |
| N#CC(C#N)=NNc1cccc(Cl)c1 [CARBONYL CYANIDE M-CHLOROPHENYLHYDRAZONE] | 4800 | – | – | – | – | – | – | – | – | – | – |
| CC[C@@H](CO)NCCN[C@@H](CC)CO [ETHAMBUTOL] | – | – | – | – | – | 9.8 (≈ 2 µg/mL) | 9.8 (≈ 2 µg/mL) | 9.8 (≈ 2 µg/mL) | 9.8 (≈ 2 µg/mL) | 9.8 (≈ 2 µg/mL) | – |
| COc1cc2nc(NCCc3cccnc3)nc(Nc3cnc(OC)c(C)c3)c2cc1OC | 100 | > 200 | 96 | – | – | – | – | – | – | – | – |
| CN(C)CCOc1ncc(Nc2cc(C(F)(F)F)nc3cc(-c4ccc(F)cc4)nn23)cc1F | 500 | 12.5 (≈ 5.98 µg/mL) | 19 | – | – | – | – | – | – | – | Ratio IC50 [12]: 100 |
| CCOc1ncc(Nc2cc(NCCC3CCOCC3)nc3ccnn23)cc1F | 21000 | > 50 | > 1.2 | – | – | – | – | – | – | – | – |
